Where “and” joins values, the source holds several entries; their conditions need not be identical. Identical values can stand only once.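 Where inhibition never reached the appropriate level, the endpoint shown equals the highest concentration tested. Otherwise, values were interpolated linearly from a five-concentration, 48-hour dose response in 96-well plates. Here, GI50 denotes the concentration required for 50% inhibition of growth. TGI: total growth inhibition.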
What was measured:
Experiment in all cases: DTP human tumour cell line panel, 48 h
SK-MEL-2 melanoma = tested on: SK-MEL-2 melanoma
UACC-62 melanoma = tested on: UACC-62 melanoma
SK-MEL-28 melanoma = tested on: SK-MEL-28 melanoma
SNB-19 CNS = tested on: SNB-19 CNS
SF-268 CNS = tested on: SF-268 CNS
NCI-H460 lung = tested on: NCI-H460 lung
HOP-92 NSCLC = tested on: HOP-92 NSCLC
RXF 393 renal = tested on: RXF 393 renal
NCI-H23 lung = tested on: NCI-H23 lung
HS 578T breast = tested on: HS 578T breast

SMILES	TGI (SK-MEL-2 melanoma)	TGI (UACC-62 melanoma)	TGI (SK-MEL-28 melanoma)	TGI (SNB-19 CNS)	TGI (SF-268 CNS)	TGI (NCI-H460 lung)	TGI (HOP-92 NSCLC)	TGI (RXF 393 renal)	TGI (NCI-H23 lung)	TGI (HS 578T breast)	GI50 (SK-MEL-2 melanoma)	GI50 (UACC-62 melanoma)	GI50 (SK-MEL-28 melanoma)	GI50 (SNB-19 CNS)	GI50 (SF-268 CNS)	GI50 (NCI-H460 lung)	GI50 (HOP-92 NSCLC)	GI50 (RXF 393 renal)	GI50 (NCI-H23 lung)	GI50 (HS 578T breast)
Cn1nnc2c(C(N)=O)ncn2c1=O	> 100 µM	> 100 µM	> 100 µM	> 100 µM	> 100 µM	> 100 µM	> 100 µM	> 100 µM	> 100 µM	> 100 µM										
NS(=O)(=O)c1cccc(-c2ccc3c(NC(=O)C4CC4)n[nH]c3c2)c1	24.9 µM	> 25 µM	> 25 µM	> 25 µM	> 25 µM	> 25 µM	> 25 µM	> 25 µM	> 25 µM	> 25 µM	8.78 µM	15.7 µM	15.7 µM	20.4 µM	> 21.6 µM	> 16.4 µM	> 25 µM	> 15 µM	> 25 µM	9.6 µM
O=S(=O)(NC1=NCCN1C(=S)SN1CCn2c1nsc2=S)c1cccc(OC(F)(F)F)c1	41.5 µM	21.6 µM	32.6 µM	45.4 µM	34.4 µM	41.4 µM	20.4 µM	6 µM	32.1 µM	> 100 µM	16 µM	9.68 µM	15.9 µM	18 µM	11.2 µM	13.4 µM	4.45 µM	2.42 µM	12.8 µM	35.9 µM
CC/C=C\C/C=C/C=C1/C(=O)C=C[C@@H]1C/C=C\CCCC(=O)OC	12.5 µM	5.17 µM	6.42 µM	19.3 µM	24.7 µM	8.85 µM	8.49 µM	3.84 µM	4.45 µM	> 100 µM	3.35 µM	2.24 µM	2.33 µM	5.06 µM	3.81 µM	3.07 µM	3.07 µM	1.94 µM	1.9 µM	15.1 µM
CC1(C)CC2=C(Sc3ccccc3N2)C(=O)C1C(=O)C(=O)Nc1cc(Cl)ccc1Cl (configuration not stated)	> 100 µM	> 100 µM	> 100 µM	> 100 µM	> 100 µM	28.1 µM	> 100 µM	> 100 µM	> 100 µM	> 100 µM										
CCN(CC)C(=S)SSC(=S)N(CC)CC	71.1 µM and 297 µM	30.4 µM and 44.5 µM	35.4 µM and 97.5 µM	> 75.6 µM and 219 µM	> 58 µM and 42.6 µM	84.2 µM and 66.4 µM	38.4 µM and 133 µM	32.4 µM and 32.9 µM	> 76.7 µM and 70.1 µM	64 µM and 501 µM	26.3 µM and 82.2 µM	15.2 µM and 18.1 µM	15.8 µM and 26.8 µM	37.4 µM and 76.4 µM	22 µM and 18.6 µM	23.8 µM and 17.4 µM	15 µM and 40.4 µM	15.8 µM and 17.3 µM	23 µM	20.9 µM and 105 µM
Cc1c2ccncc2c(C)c2c1c1cc(CO)ccc1n2C	2.54 µM	1.76 µM	6.5 µM	4.24 µM	7.81 µM	1.1 µM	4.87 µM	1.7 µM	2.66 µM	7.86 µM	0.819 µM	0.287 µM	1.82 µM	0.431 µM	0.468 µM	0.243 µM	0.636 µM	0.41 µM	0.429 µM	0.96 µM
C=C1C(=O)O[C@H]2[C@H]1CC/C(CNC(=O)/C=C/c1ccccc1)=C\CC[C@@]1(C)O[C@@H]21	3.41 µM	2.76 µM	4.18 µM	10.9 µM	8.88 µM	5.05 µM	3.38 µM	2.15 µM	3.9 µM	37 µM	1.49 µM	1.37 µM	1.48 µM	2.39 µM	2.86 µM	2.18 µM	1.46 µM	0.864 µM	1.73 µM	4.21 µM
NC(=O)c1cccc(-c2cc(C(N)=O)ccc2Cl)c1	> 100 µM	56 µM	> 100 µM	> 100 µM	> 100 µM	54 µM	6.99 µM	5.26 µM	> 100 µM	> 100 µM	5.21 µM	1.77 µM	7.17 µM	2.89 µM	5.68 µM	12.2 µM		2.11 µM	9.21 µM	2.59 µM
NNc1c2ccccc2nc2ccccc12	29.2 µM	19.3 µM	60.7 µM	> 100 µM	> 100 µM	15.5 µM	43.6 µM	24.4 µM	33 µM	> 100 µM	12.5 µM	3.44 µM	10.7 µM	5.89 µM	5.94 µM	2.48 µM	5.19 µM	7.4 µM	1.37 µM	16 µM
Cc1oc2c(c1C(=O)N1CC[C@@H](N)C1)C(=O)c1c(c(O)c3ccccc3c1O)C2=O	23.9 µM	19.6 µM	20.9 µM	15.7 µM	10.6 µM	2.21 µM	17.4 µM	11.3 µM	12.2 µM	22.6 µM	11 µM	4.46 µM	7.47 µM	2.45 µM	1.83 µM	0.308 µM	4.64 µM	2.53 µM	2.61 µM	5.23 µM
COc1cccc2c1[C@H]1CO[C@H]3C4C[C@H](C(=O)O)C([C@@H](C2)N13)N4C (some centres not stated)	2.11 µM and 0.655 µM		4.91 µM and 1.65 µM	> 100 µM	7.43 µM and > 32 µM	> 38.2 µM	4.55 µM and 3.22 µM	2.42 µM and 0.576 µM	5.47 µM and 1.63 µM	0.656 µM	0.245 µM	0.0475 µM	0.621 µM	3.81 µM	1.13 µM	1.36 µM	0.684 µM	0.136 µM	0.564 µM	
O=[N+]([O-])c1ccc2c(Nc3ccccc3-c3ccccc3Nc3c4ccccc4nc4cc([N+](=O)[O-])ccc34)c3ccccc3nc2c1	6.55 µM	11.5 µM	59.1 µM	43.8 µM	49.8 µM	15.3 µM	24.4 µM	17.4 µM	34.7 µM	14.9 µM										
